Test results from ChEMBL document CHEMBL5727915, “Substituted [5,6]cyclic-4(3H)-pyrimidinones as anticancer agents” (2020).

What follows are molecules tested against CDC7/DBF4 (Cell division cycle 7-related protein kinase/Activator of S phase kinase) (Homo sapiens, UniProt O00311) (assay: Biochemical Assay: Biochemical assay was tested in the U-shaped bottom 384 plate (corning, #4514) with a final volume of […] at 27° C. The concentration of CDC7 was optimized by the enzyme titration experiment. CDC7 kinase was diluted in assay buffer (40 mM Tris.HCl pH 7.25, 100 ug/mL BSA, and 20 mM MgCl2) to get 2.4× enzyme solutions. Compounds were dissolved in 10 mM DMSO, and series diluted in DMSO from 0.3 mM to 0.3 nM (5 concentration pts); All dilutions were diluted 30× in assay buffer to get 6× compounds solutions. MCM2 Substrate and ATP were diluted to 2.4× mixed solution. Add 2 ul test compound solution to 384 assay plate, then add 5 ul substrate/ATP mixed solution, at last add 5 ul enzyme solution, incubate at 27° C. for 180 mins. Transfer 5 ul reaction solution to another 384 assay plate, then add 5 ul ADP-Glo™ Reagent (Promega) to each well and incubate at 27° C. for 40 mins; Add 10 ul Kinase Detection Reagent (Promega) to each well and incubate at 27° C. for 30 mins. 10 uM CDC7-3 compound was used as 100% inhibition while 100% DMSO control was used as 0% inhibition. Each test has three replications at least.).
Format: protein-complex assay

Chain of CDC7/DBF4 (Cell division cycle 7-related protein kinase/Activator of S phase kinase) (Q9UBU7 whole entry): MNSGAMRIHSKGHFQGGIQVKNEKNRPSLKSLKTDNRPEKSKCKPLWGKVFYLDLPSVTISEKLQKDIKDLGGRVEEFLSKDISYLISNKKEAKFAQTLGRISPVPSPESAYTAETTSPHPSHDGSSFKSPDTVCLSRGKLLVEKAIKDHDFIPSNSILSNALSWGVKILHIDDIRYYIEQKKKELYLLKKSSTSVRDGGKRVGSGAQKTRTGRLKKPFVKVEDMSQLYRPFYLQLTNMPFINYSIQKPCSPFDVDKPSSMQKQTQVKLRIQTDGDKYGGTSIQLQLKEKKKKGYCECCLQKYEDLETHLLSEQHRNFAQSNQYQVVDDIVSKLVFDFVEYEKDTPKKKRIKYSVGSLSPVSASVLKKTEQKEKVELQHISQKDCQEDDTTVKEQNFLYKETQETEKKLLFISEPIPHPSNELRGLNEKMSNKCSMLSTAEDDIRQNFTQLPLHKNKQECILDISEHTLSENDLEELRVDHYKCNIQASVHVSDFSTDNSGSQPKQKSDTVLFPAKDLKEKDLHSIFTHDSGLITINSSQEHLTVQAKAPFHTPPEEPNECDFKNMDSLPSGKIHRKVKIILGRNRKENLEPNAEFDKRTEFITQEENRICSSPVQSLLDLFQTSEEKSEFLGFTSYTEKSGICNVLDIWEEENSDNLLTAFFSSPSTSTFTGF
Chain of CDC7/DBF4 (Cell division cycle 7-related protein kinase/Activator of S phase kinase) (O00311 whole entry): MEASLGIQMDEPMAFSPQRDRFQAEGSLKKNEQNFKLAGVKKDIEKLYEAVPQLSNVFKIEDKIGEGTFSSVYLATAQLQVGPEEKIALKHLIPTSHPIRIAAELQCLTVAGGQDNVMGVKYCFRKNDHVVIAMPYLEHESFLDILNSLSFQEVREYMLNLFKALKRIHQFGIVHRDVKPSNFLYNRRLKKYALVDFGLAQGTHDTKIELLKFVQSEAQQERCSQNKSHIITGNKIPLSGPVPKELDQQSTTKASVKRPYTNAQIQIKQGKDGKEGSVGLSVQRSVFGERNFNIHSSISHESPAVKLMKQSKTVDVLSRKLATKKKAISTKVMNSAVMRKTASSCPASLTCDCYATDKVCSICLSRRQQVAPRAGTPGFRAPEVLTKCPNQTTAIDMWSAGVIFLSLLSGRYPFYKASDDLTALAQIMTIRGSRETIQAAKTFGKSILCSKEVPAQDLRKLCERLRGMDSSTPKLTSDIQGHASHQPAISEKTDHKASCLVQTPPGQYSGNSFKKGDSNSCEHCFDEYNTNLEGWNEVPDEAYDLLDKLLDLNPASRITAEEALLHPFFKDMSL

| IC50 | Compound |
| --- | --- |
| < 1 µM | CC(C)[C@H](N)c1nc2cc(-c3ccnc(Cl)c3)sc2c(=O)[nH]1 |
| < 1 µM | Cc1cc(-c2cc3nc([C@@H](N)C(C)C)[nH]c(=O)c3s2)ccn1 |
| < 1 µM | CC[C@H](N)c1nc2cc(-c3ccnc(F)c3)sc2c(=O)[nH]1 |
| < 10 µM | CN[C@H](c1nc2cc(-c3ccnc(F)c3)sc2c(=O)[nH]1)C(C)C |
